The values below come from US8420307B2, “Sperm cryoprotective media” (The Jackson Laboratory, priority 2006, dated 2013).

The subject of assay [1] is reactive oxygen species within cryopreserved mouse sperm. Briefly: Intracellular reactive oxygen species by CM-H2DCFDA dye and flow cytometry after tert-butyl hydroperoxide challenge. Format: cell-based. The following applies: for level of reactive oxygen species within cryopreserved mouse sperm (relative fluorescence): C57BL/6 sperm, diluted 1:1 with solution supplemented with 954 mM MTG, 1 mM GSH or 2 mM DTT before freezing, FIGS. 7A and 7B. How it is done: Sperm cryopreserved in the presence and absence of the free radical scavenger, the reducing agent monothioglycerol (MTG), are loaded with the green fluorescent dye CM-H2DCFDA to measure intracellular reactive oxygen species. The sperm are challenged with varying levels of Tert-Butylhydrogen peroxide to induce oxidative damage and green fluorescence is measured using flow cytometry.
For example, the capability to reduce ROS can be tested by a dye/sperm method as described in Example 4 and also see publications by Nelid et al 2006 and Guthrie and Welch 2006. Either fresh or cryopreserved sperm can be used in this assay. For example, sperm collected from the vas deferens and epididymis of two C57BL/6J mice into 1 mL of a solution containing 3% skim milk (w/v; BD Diagnostics; cat #232100) and 18% raffinose (w/v; Sigma; cat #R7630). A fraction of the collected sperm was diluted 1:1 in the same skim milk raffinose solution while another fraction was diluted 1:1 using the skim milk raffinose solution supplemented with […] monothioglycerol (MTG; Sigma Aldrich; cat #M6145). Another set of C57BL/6J males was used to collect sperm and dilute in the skim milk raffinose solution with 1 mM glutathione (GSH; Sigma Aldrich; cat #G6013) or 2 mM dithiothreitol (DTT; Sigma Aldrich; cat #646563). The sperm was cryopreserved as described in Example 1 and stored in liquid nitrogen for at least 24 hours.
To determine if MTG, GSH or DTT can act as a free radical scavenger, the sperm were thawed and loaded with the green fluorescent dye 5-(and-6)-chloromethyl-2′,7′-dichlorodihydrofluorescein diacetate (CM-H2DCFDA; Invitrogen C6827). This dye is a cell-permeant indicator for reactive oxygen species that is nonfluorescent until removal of the acetate groups by intracellular esterases and oxidation occurs within the cell. The emission of fluorescence correlates with ROS generation as a result of DCFH oxidation. To load the sperm, at least 150 μL of sperm were thawed and diluted 1:1 in a sperm incubation media described by Bath et al. ((Bath 2003); 123 mM NaCl; 4.7 mM KCl; 0.2 mM MgSO4.7H2O; 10 mM;NaHCO3 21 mM HEPES; 0.33 mM sodium pyruvate; 4.6 mM glucose; 100 IU/mL penicillin G; 1.33 mg/mL BSA). The lyophilized dye was resuspended in dimethylsulfoxide to a concentration of 432.5 μM and then added to the cells, such that the final dye concentration was 40 μM. […] The samples were loaded onto either a FACScan (BD Biosciences; Franklin Lakes, N.J.) or FACSCalibur (BD Biosciences; Franklin Lakes, N.J.) flow cytometer and the green fluorescence was measured on at about 5,000 viable sperm. […]

In another assay the test system is C57BL/6 Sperm. Briefly: Post-thaw motility of mouse sperm (IVOS computerized semen analysis). Format: cell-based. The following applies: for IVF Fit: motility of at least 5% is required to achieve fertilization in IVF. How it is done: To determine the concentration, motility, and progressive motility of “freshly-collected” sperm, the sperm is typically diluted 1:20 in either phosphate buffered saline or Cooks Mouse Vitro Fert (Cook Australia; Queensland, Australia; (Quinn et al., 1995)). To assess thawed sperm, sperm is incubated in IVF medium for an hour, at a dilution of 1:50 in the IVF drop. It is then loaded into a Hamilton Thom IVOS computerized semen analyzer (Hamilton Thom, Beverly, Mass.). For measurement, the calibration parameters are set as follows: • Apply Sort: 2 • Frames acquired: 30 • Frame rate: 60 Hz • Minimum contrast: 30 • Minimum Cell Size: 4 pixels • Minimum Static Contrast: 15 • Straightness (STR), Threshold: 50% • Low VAP Cutoff: 10.0 μm/s • Medium VAP Cutoff: 50.0 μmis • Low VSL Cutoff: 0.0 grids • Head Size, Non-Motile: 13 pixels • Head Intensity, Non-Motile: 75 • Static Head Size: 0.57 to 2.91 • Static Head Intensity: 0.14 to 1.84 • Static Elongation: 0 to 87 • Slow Cells Motile: YES • Magnification: 0.82 • Video Source Camera • Video Frequency: 60 • Bright Field No • Brightness for LED: 2663 • Brightness for Ident: 3000 • Temperature, Set: 37° C.
If the compound is capable of reducing ROS at the tested concentration, then its effect on sperm motility and fertilization is tested. While the sperm motility assay is a helpful fast screening tool in the case of mouse, this assay is not required for mouse and one can perform only the IVF assay in the case of mouse. For other species, e.g. bovine, the sperm motility assay together with the fluorescence assay is sufficient. The sperm motility assay can be done either with fresh or cryopreserved sperm. For example, the motility can be determined as described in Example 6 (Determination of Sperm Concentration and Motility), using an IVOS instrument. Briefly, C57BL/6 sperm were diluted 1:50 in pre-warmed and gassed mouse vitro fert (Cook's; Spencer, Ind.) under light mineral oil. The samples were incubated for an hour at 37° C., in a humidified atmosphere of 5% CO2, 5% O2 and 90% nitrogen in a K-MINC-1000 bench top incubator (Cook's; Spencer, Ind.). After incubation, the sperm were drawn into 0.1×2.0 mm I.D. tubes (VitroCom Inc. Mt Lks. N.J.) using capillary action and 3 manually selected fields per sample were analyzed for motility using the Hamilton Thorn (Beverly, Mass.) integrated visual optics system (IVOS) for computerized semen analysis. Applicants have shown that sperm frozen in CPM containing no free radical scavenger, 0.477 mM MTG, 0.1 mM DTT, 1 mM DTT, 5 mM DTT, 20 mM DTT, 0.5 mM GSH, 1 mM GSH, 5 mM GSH or 50 mM GSH can be assessed for motility and that motility of at least 5% is required to achieve fertilization in IVF.

Where [2] appears, read: C57BL/6 sperm frozen in CPM containing 1 mM free radical scavenger.
[3] abbreviates: C57BL/6 sperm frozen in CPM containing 5 mM free radical scavenger.

For `OCC(O)CS` (stereo not shown) [MTG, monothioglycerol], the “level of reactive oxygen species within cryopreserved mouse sperm (relative fluorescence)” value (shortened to “level … (relative fluorescence)”) in assay [1] was “limited the level of ROS”. For the same compound, the “ROS in cryopreserved sperm (green fluorescence)” value in assay [1] (sperm from C57BL/6J (B6) and BALB/cByJ (BALB/cBy) mice, FIG. 3) is reported as “reduces the ROS”. For the same compound, the “IVF Fit” value in the assay on C57BL/6 Sperm (0.477 mM) is “yes”. The “Average Post Thaw Motility” value in the assay on C57BL/6 Sperm (C57BL/6 sperm frozen in CPM containing 0.477 mM free radical scavenger) worked out at 16%.
With `O[C@H](CS)[C@H](O)CS` (racemic) [DTT, dithiothreitol], the “level … (relative fluorescence)” value in assay [1] is listed as “limited the level of ROS”. Moreover, the “IVF Fit” value is listed as “yes” in the assay with C57BL/6 Sperm (0.1 mM), “yes” in the assay on C57BL/6 Sperm (1 mM), “yes” in the assay with C57BL/6 Sperm (5 mM) and “no” with C57BL/6 Sperm (20 mM). Moreover, the “Average Post Thaw Motility” value in the assay with C57BL/6 Sperm (C57BL/6 sperm frozen in CPM containing 0.1 mM free radical scavenger) is 24.6%; in the assay on C57BL/6 Sperm (setting [2]), 34%; with C57BL/6 Sperm (setting [3]), 17.6%; in the assay on C57BL/6 Sperm (C57BL/6 sperm frozen in CPM containing 20 mM free radical scavenger) it was 1.6%.
`N[C@@H](CCC(=O)N[C@@H](CS)C(=O)NCC(=O)O)C(=O)O` [GSH, reduced glutathione]: the “level … (relative fluorescence)” value in assay [1] is on record as “limited the level of ROS”. The “IVF Fit” value is “yes” with C57BL/6 Sperm (0.5 mM), “yes” in the assay on C57BL/6 Sperm (1 mM), “yes” in the assay on C57BL/6 Sperm (5 mM) and “no” in the assay with C57BL/6 Sperm (50 mM). In addition, the “Average Post Thaw Motility” value with C57BL/6 Sperm (C57BL/6 sperm frozen in CPM containing 0.5 mM free radical scavenger) is 32%; in the assay with C57BL/6 Sperm (setting [2]), 25.3%; with C57BL/6 Sperm (setting [3]) it was 41.67%; in the assay on C57BL/6 Sperm (C57BL/6 sperm frozen in CPM containing 50 mM free radical scavenger) it was 0.6%.
